Measured values taken from paper PMC10912603 (Food Chemistry: X, 2024).

Legend:
anti-EUGs mAb [1] = test: broad-spectrum indirect competitive ELISA; type: binding, mice; details: for CR (cross-reactivity): CR=[(IC50 eugenol)/(IC50 analog)]×100%; for LOD (IC10) / linear range (IC20–IC80): in buffer solution
anti-EUGs mAb [2] = test: antibody affinity by saturation concentration method; type: binding, mice; details: mAb to eugenol
1B5 mAb = details: previously reported mAb; ref [2] Lei et al., 2023; cited from earlier work
[3] = ref Li et al., 2015; cited from earlier work
[4] = National Toxicology Program; ref Li et al., 2015; cited from earlier work

| Compound | CR (cross-reactivity) (anti-EUGs mAb [1]) | LOD (IC10) (anti-EUGs mAb [1]) | linear range (IC20–IC80) (anti-EUGs mAb [1]) | further results |
| --- | --- | --- | --- | --- |
| C=CCc1ccc(O)c(OC)c1 [Eugenol] | 100% | 3.16 ng/mL | 7.92 to 184.05 ng/mL | dissociation constant Ka (anti-EUGs mAb [2]; Ka is the inverse of Kd): 1.3e+09 L/mol; Kd (anti-EUGs mAb [2]; read-out: affinity constant Kd): 0.77 nM; IC50 of mAb 1B5 (1B5 mAb): 9.23 ng/mL; IARC carcinogen category [3]: Group 3 carcinogen |
| CCOC(=O)c1cccc(N)c1.CS(=O)(=O)O [Tricaine methanesulfonate] | <0.4% |  |  |  |
| COc1cc(C=O)ccc1O [Vanillin] | <0.4% |  |  |  |
| CC(C)c1cccc(C(C)C)c1O [Propofol] | <0.4% |  |  |  |
| Oc1ccccc1O [Catechol] | <0.4% |  |  |  |
| C=CCc1ccc(OC)c(OC)c1 [Methyl eugenol] | 4773.8% | 0.06 ng/mL | 0.15 to 4.30 ng/mL | liver cancer risk [4]: potential to elevate the risk of liver cancer |
| CCCCNc1ccc(C(=O)OCCN(C)C)cc1 [Tetracaine] | <0.4% |  |  |  |
| Isoeugenol | 25460.0% | 0.00935 ng/mL | 0.026 to 0.865 ng/mL |  |
| COc1ccc(C=O)cc1OC [Veratraldehyde] | <0.4% |  |  |  |
| C/C=C/c1ccc(OC)c(OC)c1 [Methyl isoeugenol] | 8679.5% | 0.02 ng/mL | 0.06 to 3.04 ng/mL |  |
| CCOC(=O)c1ccc(N)cc1 [Benzocaine] | <0.4% |  |  |  |
| CCc1ccc(O)c(OC)c1 [4-Ethyl-2-methoxyphenol] | 8.7% |  |  |  |
| COc1ccccc1O [Guaiacol] | <0.4% |  |  |  |
